In publication PMC4487204, “The Neisseria gonorrhoeae Obg protein is an essential ribosome-associated GTPase and a potential drug target” (BMC Microbiology, 2015):

Key:
N-His-ObgGC (NGO1990) [1] = target: T1, N-His-ObgGC (NGO1990) (Neisseria gonorrhoeae, UniProt Q5F5D9); experiment: mant fluorescence enhancement, plate reader; format: binding; settings: 2 uM protein, 50 mM Tris-HCl pH 8.0, 50 mM KCl, 37 C
T1 construct: gene obg

N-His-ObgGC (NGO1990) [2] = target: T1, N-His-ObgGC (NGO1990); experiment: single-turnover hydrolysis, decrease of mant fluorescence; format: biochemical; settings: 0.3 uM mant-GTP prebound to 16 uM protein, 5 mM MgCl2, pH 8.0, 37 C; first-order rate constant

T1 sequence (Q5F5D9 whole entry): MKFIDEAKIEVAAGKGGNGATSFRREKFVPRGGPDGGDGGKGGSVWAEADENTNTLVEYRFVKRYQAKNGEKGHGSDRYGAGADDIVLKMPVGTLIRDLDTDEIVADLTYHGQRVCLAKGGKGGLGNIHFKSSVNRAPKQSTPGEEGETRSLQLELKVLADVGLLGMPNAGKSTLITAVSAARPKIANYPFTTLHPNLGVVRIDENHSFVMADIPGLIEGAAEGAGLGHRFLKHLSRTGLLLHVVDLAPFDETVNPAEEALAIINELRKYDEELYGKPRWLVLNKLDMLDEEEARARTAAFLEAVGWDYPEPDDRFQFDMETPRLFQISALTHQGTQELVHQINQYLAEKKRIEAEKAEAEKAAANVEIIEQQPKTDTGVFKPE

SMILES	fold enhancement in mant-nucleotide fluorescence (N-His-ObgGC (NGO1990) [1]; 0.3 uM mant-GTP, 5 mM Mg2+) [fold]	kh (N-His-ObgGC (NGO1990) [2]) [s⁻¹]	fold enhancement in mant-nucleotide fluorescence (N-His-ObgGC (NGO1990) [1]; 0.3 uM mant-GDP, no Mg2+) [fold]
CNc1ccccc1C(=O)O[C@H]1[C@@H](O)[C@H](n2cnc3c(=O)[nH]c(N)nc32)O[C@@H]1COP(=O)(O)OP(=O)(O)OP(=O)(O)O [mant-GTP]	1.9	0.00023	–
CNc1ccccc1C(=O)O[C@H]1[C@@H](O)[C@H](n2cnc3c(=O)[nH]c(N)nc32)O[C@@H]1COP(=O)(O)OP(=O)(O)O [mant-GDP]	–	–	1.3
